The text below walks through data of PMC4245125, “Pharmacological and Behavioral Characterization of D-473, an Orally Active Triple Reuptake Inhibitor Targeting Dopamine, Serotonin and Norepinephrine Transporters” (PLoS ONE, 2014).

In one data set the target is D1 (Homo sapiens, UniProt P21728). As to the kind of experiment: NIMH PDSP receptor binding, D1.
Data set [1] is described as follows: Brain uptake after oral administration in rats. The format is in vivo. To be noted: rat, 25 mg/kg PO. On the procedure: Sample preparation: Following oral administration of 25 mg/kg of D-473 and D-142 in male Sprague Dawley rats, the blood samples were collected at different time points over a period of 8 h for analysis. Concentrations of D-473 and D-142 in plasma were quantitated using a set of calibration standards prepared in blank matrix that were processed in parallel. Plasma concentration evaluation was carried out by the CRO, Absorption System, PA. Additionally, brain uptake studies of D-473 were carried out at three different time points (2, 4 and 6 h) following oral administration of 25 mg/kg D-473. Concentrations of D-473 in rat brain were quantitated using a set of calibration standards which were prepared in blank brain homogenate matrix on the day of analysis. The standard samples (5, 10, 25, 100, 500, 1000, and 2000 ng/mL) for calibration curve were prepared by spiking 45 µL of blank rat plasma with 5 µL of appropriate working dilution of D-473 in acetonitrile. The bioanalytical sample preparation for brain and plasma analysis followed by quantification of test compounds entailed the addition of 250 µL acetonitrile to every 50 µL of standard and analyte samples to precipitate tissue plasma proteins and tissue macromolecules. These mixtures were then vortexed for 15 min at 1400 rpm. The suspensions were then clarified by centrifugation (18000 g, 10 min at 4°C), and each 150 µL of the resulting supernatant was mixed well with 50 µL 0.1% formic acid in 50/50 (v/v) ACN/water solution for about 10 sec. The mixtures were again centrifuged (18000 g, 10 min at 4°C) before 100 µL of clear supernatant were transferred to auto sampler vials for LC-MS/MS analysis.
The analysis of brain samples was performed using Waters (Milford, MA, USA) Acquity UPLC instrument with a triple quadrupole (TQD) MS analyzer. The LC-MS/MS detection was performed using a positive Multiple Reaction Monitoring (MRM) method by monitoring the ion transition of D-473 from m/z 440.39 → 121.03. The MS/MS conditions include capillary voltage, 2.92 kV, cone voltage, 26.0 V; source temperature, 150°C; desolvation temperature, 350°C; desolvation gas flow, 500 L/hr; and collision energy, 33 eV. The MS control and data acquisition were collected using the Waters MassLynx software v4.1. Chromatographic conditions were achieved using a reverse phase C-18 ethylene bridged hybrid column (BEH C18) (2.1×100 mm, 1.7 µM). 5 µL of sample solutions were injected and samples were eluted using 0.1% formic acid in water (solvent A) and 0.1% formic acid in ACN (solvent B) mixture with a flow rate of 0.2 mL/min. Gradient elution of the mobile phase was 90% A to 5% A from 0 to 1 min, 5% A, 95% B from 1 to 3 min, and 5% A to 90% A from 3 to 5 min.

In the next data set the target is T1, Alpha1A (Homo sapiens, UniProt P35348).
T1 construct: purchased NIMH PDSP
Kind of data set: NIMH PDSP receptor binding, Alpha1A. To be noted: [3H]Prazosin, read-out: % Inhibition of Binding at 10 µM D-473.

Another data set has as its target T2, 5HT1e (Homo sapiens, UniProt P28566).
T2 construct: purchased NIMH PDSP
Kind of data set: NIMH PDSP receptor binding, 5HT1e. To be noted: [3H]5-HT, read-out: % Inhibition of Binding at 10 µM D-473.

The next data set concerns the target T3, D3 (Homo sapiens, UniProt P35462).
T3 construct: purchased NIMH PDSP
As to the kind of experiment: NIMH PDSP receptor binding, D3. The following applies: [3H]N-methylspiperone, read-out: % Inhibition of Binding at 10 µM D-473.

In the next data set the test system is GABA A. As to the kind of experiment: NIMH PDSP receptor binding, GABA A. The following applies: [3H]Muscimol.
For the next data set, the target named is T4, 5HT5a (Homo sapiens, UniProt P47898).
T4 construct: purchased NIMH PDSP
As to the kind of experiment: NIMH PDSP receptor binding, 5HT5a. The following applies: [3H]LSD, read-out: % Inhibition of Binding at 10 µM D-473.

The next data set concerns the target hSERT (Homo sapiens, UniProt P31645). Kind of data set: Inhibition of [3H]5-HT uptake by cloned human SERT in HEK293 cells.

The structures appear in SMILES notation.

Chain of hSERT (P31645 whole entry): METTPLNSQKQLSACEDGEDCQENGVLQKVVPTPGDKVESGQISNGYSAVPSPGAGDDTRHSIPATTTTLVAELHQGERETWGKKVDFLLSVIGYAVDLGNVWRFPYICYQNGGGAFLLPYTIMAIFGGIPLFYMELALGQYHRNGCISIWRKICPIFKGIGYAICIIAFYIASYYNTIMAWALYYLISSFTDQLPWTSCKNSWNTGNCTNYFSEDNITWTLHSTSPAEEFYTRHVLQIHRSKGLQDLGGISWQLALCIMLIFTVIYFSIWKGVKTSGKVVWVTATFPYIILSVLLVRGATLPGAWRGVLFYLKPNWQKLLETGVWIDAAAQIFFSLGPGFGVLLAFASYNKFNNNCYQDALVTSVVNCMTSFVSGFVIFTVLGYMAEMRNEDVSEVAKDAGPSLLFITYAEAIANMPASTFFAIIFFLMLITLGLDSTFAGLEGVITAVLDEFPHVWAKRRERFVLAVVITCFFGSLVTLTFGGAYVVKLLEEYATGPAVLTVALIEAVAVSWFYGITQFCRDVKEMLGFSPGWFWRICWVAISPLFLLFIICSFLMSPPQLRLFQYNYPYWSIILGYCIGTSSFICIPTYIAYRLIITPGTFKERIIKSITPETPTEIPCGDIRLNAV
Chain of D1 (P21728 whole entry): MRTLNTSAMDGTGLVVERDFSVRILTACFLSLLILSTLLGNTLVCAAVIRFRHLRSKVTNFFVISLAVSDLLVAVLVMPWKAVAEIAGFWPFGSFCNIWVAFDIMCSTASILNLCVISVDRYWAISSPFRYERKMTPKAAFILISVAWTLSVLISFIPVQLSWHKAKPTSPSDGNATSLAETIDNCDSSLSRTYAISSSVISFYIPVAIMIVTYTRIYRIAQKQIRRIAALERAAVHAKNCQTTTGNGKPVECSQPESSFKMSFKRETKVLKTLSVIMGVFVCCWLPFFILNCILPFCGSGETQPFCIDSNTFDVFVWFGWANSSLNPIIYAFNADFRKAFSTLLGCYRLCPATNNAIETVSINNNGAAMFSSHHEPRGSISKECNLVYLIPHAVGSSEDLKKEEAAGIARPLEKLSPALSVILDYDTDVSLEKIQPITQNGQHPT
T2 sequence (P28566 whole entry): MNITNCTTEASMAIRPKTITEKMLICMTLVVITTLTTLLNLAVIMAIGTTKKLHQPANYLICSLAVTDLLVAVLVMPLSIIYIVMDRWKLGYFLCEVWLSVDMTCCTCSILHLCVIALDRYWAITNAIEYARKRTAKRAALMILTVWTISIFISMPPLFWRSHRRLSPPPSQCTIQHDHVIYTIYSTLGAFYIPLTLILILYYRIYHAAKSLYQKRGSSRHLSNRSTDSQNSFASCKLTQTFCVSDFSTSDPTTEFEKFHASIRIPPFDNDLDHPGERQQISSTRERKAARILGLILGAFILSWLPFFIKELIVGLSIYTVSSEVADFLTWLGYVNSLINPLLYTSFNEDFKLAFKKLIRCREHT
T3 sequence (P35462 whole entry): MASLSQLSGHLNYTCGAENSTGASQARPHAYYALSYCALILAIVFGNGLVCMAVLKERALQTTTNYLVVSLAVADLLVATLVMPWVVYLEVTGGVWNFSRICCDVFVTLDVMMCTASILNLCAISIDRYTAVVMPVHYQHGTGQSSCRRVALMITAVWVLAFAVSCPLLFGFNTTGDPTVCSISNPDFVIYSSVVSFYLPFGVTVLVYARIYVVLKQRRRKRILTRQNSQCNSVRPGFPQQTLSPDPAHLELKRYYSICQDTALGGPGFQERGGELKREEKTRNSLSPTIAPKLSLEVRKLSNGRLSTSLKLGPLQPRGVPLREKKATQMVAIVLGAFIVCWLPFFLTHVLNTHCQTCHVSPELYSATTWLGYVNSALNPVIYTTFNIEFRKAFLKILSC
T4 sequence (P47898 whole entry): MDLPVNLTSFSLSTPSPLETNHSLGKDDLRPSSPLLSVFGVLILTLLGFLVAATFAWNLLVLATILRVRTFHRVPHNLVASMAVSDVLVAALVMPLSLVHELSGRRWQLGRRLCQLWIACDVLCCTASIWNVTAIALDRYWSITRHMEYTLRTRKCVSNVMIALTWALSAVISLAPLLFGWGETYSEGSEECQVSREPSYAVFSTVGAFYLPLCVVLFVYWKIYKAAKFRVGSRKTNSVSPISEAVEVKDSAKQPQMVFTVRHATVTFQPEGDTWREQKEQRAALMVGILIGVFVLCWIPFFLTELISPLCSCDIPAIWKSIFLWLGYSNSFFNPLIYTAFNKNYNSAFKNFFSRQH
T1 sequence (P35348 whole entry): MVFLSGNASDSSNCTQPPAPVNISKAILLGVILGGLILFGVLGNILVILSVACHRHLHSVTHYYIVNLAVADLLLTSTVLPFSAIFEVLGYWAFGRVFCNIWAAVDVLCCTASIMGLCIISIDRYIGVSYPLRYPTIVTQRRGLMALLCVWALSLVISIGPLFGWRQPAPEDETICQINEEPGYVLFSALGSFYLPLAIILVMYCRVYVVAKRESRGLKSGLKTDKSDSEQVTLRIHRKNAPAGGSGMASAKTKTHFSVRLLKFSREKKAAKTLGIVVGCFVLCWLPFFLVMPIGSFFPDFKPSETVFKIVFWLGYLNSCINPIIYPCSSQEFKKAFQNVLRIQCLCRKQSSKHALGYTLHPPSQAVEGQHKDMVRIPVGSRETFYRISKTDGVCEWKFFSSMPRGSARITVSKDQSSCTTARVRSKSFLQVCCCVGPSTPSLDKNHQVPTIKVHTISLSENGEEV

For orientation: inhibition means the share of the control response that was lost under treatment. Broadly, the Ki is a measure of affinity in units of concentration, obtained from inhibition or displacement. In the case of `COc1ccc(CN[C@@H]2CO[C@H](C(c3ccc(F)cc3)c3ccc(F)cc3)C[C@H]2O)cc1` [Compound D-473, (2S,4R,5R)-2-(bis(4-fluorophenyl)methyl)-5-((4-methoxybenzyl)amino)tetrahydro-2H-pyran-4-ol], the inhibition at 10 µM at D1 ([3H]SCH 23390, 10 µM, read-out: % Inhibition of Binding at 10 µM D-473) came out at 62.2%; on Alpha1A it was 23.6%; at 5HT1e it was 38%; at D3, 30.8%; at 5HT5a it was 19.5%. Further, the Ki is 0.63 µM at D1 ([3H]SCH 23390, secondary assay, read-out: Ki for D-473) and 0.00918 ± 0.00169 µM on hSERT. Further, the Kp at 2 h in data set [1] (male, Sprague-Dawley, brain and plasma, 2 h, read-out: Brain/plasma ratio) was determined as 0.76. Also, the Kp at 4 h in data set [1] (male, Sprague-Dawley, brain and plasma, 4 h, read-out: Brain/plasma ratio) turned out to be 1.54. The Kp at 6 h in data set [1] (male, Sprague-Dawley, brain and plasma, 6 h, read-out: Brain/plasma ratio) amounted to 1.22. Also, the concentration at 2 h in data set [1] (male, Sprague-Dawley, brain, 2 h) came to 264 ng/mL. In addition, the concentration at 4 h in data set [1] (male, Sprague-Dawley, brain, 4 h, read-out: Concentration in the brain (peak)) is 345 ng/mL. Further, the “Concentration in the brain” value in data set [1] (6 h) is “slightly lower than observed at 2 h”. Moreover, in the data set on GABA A, the “% Inhibition of Binding at 10 µM D-473” value turned out to be 5.1%. For the same molecule, the “Potency at SERT relative to Fluoxetine” value on hSERT (hSERT uptake inhibition) was “almost one and a half fold greater”.
